From patent publication EP2975030B1, “DIHYDROPYRIDAZINE-3,5-DIONE DERIVATIVE” (Chugai Seiyaku Kabushiki Kaisha, priority 2013, dated 2014)

system: rat small-intestinal brush border membrane vesicles; experiment: Inhibitory effect on 33PO4 uptake into rat small-intestinal brush border membrane vesicles (rapid filtration method); assay type: biochemical, Wistar female rat; conditions: 1 µM test compound; 33PO4 uptake into rat small-intestinal BBMVs, 60 seconds
Outline: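 33PO4 uptake into rat small-intestinal brush border membrane vesicles measured by rapid filtration. Reactions were stopped with ice-cold buffer (110 mM NaCl, 1 mM KH2PO4, 10 mM HEPES pH 7.5), filtered and washed. Vesicle-associated radioactivity was counted by liquid scintillation.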

SMILES | Rate of uptake inhibition (%) (1 µM)
C[C@]12CCCN1N(Cc1cccc(Cl)c1)C(=O)C(C(=O)Nc1cc(F)c(Br)c(F)c1)=C2O [Example 221] | 82%
C[C@]12CCCN1N(Cc1ccc(C#N)cc1)C(=O)C(C(=O)Nc1cc(F)c(Br)c(F)c1)=C2O [Example 222] | 97%
C[C@]12CCCN1N(Cc1ccc(Cl)cc1)C(=O)C(C(=O)Nc1cc(F)c(Br)c(F)c1)=C2O [Example 223] | 77%
C[C@]12CCCN1N(CCCC(F)(F)F)C(=O)C(C(=O)Nc1ccc(C(F)(F)F)cc1-c1cc(C(F)(F)F)ncn1)=C2O [Example 234, (4aR)-4-Hydroxy-4a-methyl-2-oxo-1-(4,4,4-trifluorobutyl)-N-[4-(trifluoromethyl)-2-[6-(trifluoromethyl)pyrimidin-4-yl]phenyl]-6,7-dihydro-5H-pyrrolo[1,2-b]pyridazine-3-carboxamide] | 73%
CCOC(=O)CCCCCCN1C(=O)C(C(=O)Nc2ccc(C(F)(F)F)cc2-c2ccc(C(F)(F)F)nc2)=C(O)[C@@]2(C)CCCN12 [Example 235, Ethyl 7-[(4aR)-4-hydroxy-4a-methyl-2-oxo-3-[[4-(trifluoromethyl)-2-[6-(trifluoromethyl)pyridin-3-yl]phenyl]carbamoyl]-6,7-dihydro-5H-pyrrolo[1,2-b]pyridazin-1-yl]heptanoate] | 65%
COCCOCCOCCCCCCCCN1C(=O)C(C(=O)Nc2ccc(C(F)(F)F)cc2-c2cc(C(F)(F)F)ncn2)=C(O)[C@@]2(C)CCCN12 [Example 236, (4aR)-4-Hydroxy-1-[8-[2-(2-methoxyethoxy)ethoxy]octyl]-4a-methyl-2-oxo-N-[4-(trifluoromethyl)-2-[6-(trifluoromethyl)pyrimidine-4-yl]phenyl]-6,7-dihydro-5H-pyrrolo[1,2-b]pyridazine-3-carboxamide] | 60%
CN1[C@@H](C(C)(C)C)C(O)=C(C(=O)Nc2ccc(Cl)cc2-c2cc(C(F)(F)F)ncn2)C(=O)N1Cc1cccc(F)c1F [Example 237] | 51%
CN1[C@@H](C(C)(C)C)C(O)=C(C(=O)Nc2ccc(C(F)(F)F)cc2-c2ccc(C(F)(F)F)nc2)C(=O)N1Cc1cccc(F)c1F [Example 238] | 47%
CN1[C@@H](C(C)(C)C)C(O)=C(C(=O)Nc2ccc(Cl)cc2-c2ccc(C(F)(F)F)nc2)C(=O)N1Cc1cccc(F)c1F [Example 239] | 48%
CN1[C@@H](C(C)(C)C)C(O)=C(C(=O)Nc2cc(F)c(Br)c(F)c2)C(=O)N1Cc1cccc(F)c1F [Example 240] | 72%
Cc1nc(NC(=O)C2=C(O)[C@H](C(C)(C)C)N(C)N(Cc3cccc(F)c3F)C2=O)ccc1Br [Example 241] | 86%
CN1[C@@H](C(C)(C)C)C(O)=C(C(=O)Nc2ccc(Br)c(C(F)(F)F)n2)C(=O)N1Cc1cccc(F)c1F [Example 242] | 69%
CN1[C@@H](C(C)(C)C)C(O)=C(C(=O)Nc2ccc(Br)c(C(F)(F)F)c2)C(=O)N1Cc1cccc(F)c1F [Example 243] | 63%
CN1[C@@H](C(C)(C)C)C(O)=C(C(=O)Nc2cccc(C(F)(F)F)n2)C(=O)N1Cc1cccc(F)c1F [Example 244] | 71%
CCN1[C@@H](C(C)(C)C)C(O)=C(C(=O)Nc2ccc(Cl)cc2-c2ccc(C(F)(F)F)nc2)C(=O)N1Cc1cccc(F)c1F [Example 245] | 40%
CCN1[C@@H](C(C)(C)C)C(O)=C(C(=O)Nc2cc(F)c(Br)c(F)c2)C(=O)N1Cc1cccc(F)c1F [Example 246] | 52%
CC(C)(C)[C@H]1C(O)=C(C(=O)Nc2ccc(Cl)cc2-c2ccc(C(F)(F)F)nc2)C(=O)N(Cc2cccc(F)c2F)N1CC(F)(F)F [Example 247] | 51%
CC(C)(C)[C@H]1C(O)=C(C(=O)Nc2cc(F)c(Br)c(F)c2)C(=O)N(Cc2cccc(F)c2F)N1CC(F)(F)F [Example 248] | 45%
CC(C)[C@@H]1C(O)=C(C(=O)Nc2ccc(C(F)(F)F)cc2-c2cc(C(F)(F)F)ncn2)C(=O)N(Cc2cccc(F)c2F)N1C [Example 249] | 50%
CC(C)[C@@H]1C(O)=C(C(=O)Nc2ccc(Cl)cc2-c2cc(C(F)(F)F)ncn2)C(=O)N(Cc2cccc(F)c2F)N1C [Example 250] | 52%
CC(C)[C@@H]1C(O)=C(C(=O)Nc2ccc(Cl)cc2-c2ccc(C(F)(F)F)nc2)C(=O)N(Cc2cccc(F)c2F)N1C [Example 251] | 43%
CC(C)[C@H]1C(O)=C(C(=O)Nc2ccc(C(F)(F)F)cc2-c2cc(C(F)(F)F)ncn2)C(=O)N(Cc2cccc(F)c2F)N1C [Example 252] | 53%
CC(C)[C@H]1C(O)=C(C(=O)Nc2ccc(C(F)(F)F)cc2-c2ccc(C(F)(F)F)nc2)C(=O)N(Cc2cccc(F)c2F)N1C [Example 253] | 40%
CC(C)[C@H]1C(O)=C(C(=O)Nc2cc(F)c(Br)c(F)c2)C(=O)N(Cc2cccc(F)c2F)N1C [Example 254] | 58%
CN1N(Cc2cccc(F)c2F)C(=O)C(C(=O)Nc2ccc(Cl)cc2-c2cc(C(F)(F)F)ncn2)=C(O)C12CCC2 [Example 255] | 80%

SMILES | Rate of uptake inhibition (%) (1 µM)
CN1N(Cc2cccc(F)c2F)C(=O)C(C(=O)Nc2ccc(Cl)cc2-c2ccc(C(F)(F)F)nc2)=C(O)C12CCC2 [Example 256] | 79%
CN1N(Cc2cccc(F)c2F)C(=O)C(C(=O)Nc2cc(F)c(Br)c(F)c2)=C(O)C12CCC2 [Example 257] | 71%
CN1N(Cc2cccc(F)c2F)C(=O)C(C(=O)Nc2ccc(Br)c(C(F)(F)F)n2)=C(O)C12CCC2 [Example 258] | 87%
Cc1nc(NC(=O)C2=C(O)C3(CCC3)N(C)N(Cc3cccc(F)c3F)C2=O)ccc1Br [Example 259] | 52%
CN1N(Cc2cccc(F)c2F)C(=O)C(C(=O)Nc2ccc(C(F)(F)F)cc2-c2cc(C(F)(F)F)ncn2)=C(O)C12CCCC2 [Example 260] | 70%
CN1N(Cc2cccc(F)c2F)C(=O)C(C(=O)Nc2ccc(Cl)cc2-c2cc(C(F)(F)F)ncn2)=C(O)C12CCCC2 [Example 261] | 77%
Cc1nc(NC(=O)C2=C(O)C3(CCCC3)N(C)N(Cc3cccc(F)c3F)C2=O)ccc1Br [Example 262] | 43%
CN1N(Cc2cccc(F)c2F)C(=O)C(C(=O)Nc2ccc(Br)c(C(F)(F)F)n2)=C(O)C12CCCC2 [Example 263] | 66%
CN1[C@@H](C(C)(C)C)C(O)=C(C(=O)Nc2ccc(C(F)(F)F)cc2-c2ccc(C(F)(F)F)nc2)C(=O)N1Cc1ccc(OCCN2CCOCC2)c(F)c1F [Example 266] | 62%
CSc1ccc(-c2cc(C(F)(F)F)ccc2NC(=O)C2=C(O)[C@H](C(C)(C)C)N(C)N(Cc3ccc(OCCN4CCOCC4)c(F)c3F)C2=O)cn1 [Example 268] | 63%
CN1[C@@H](C(C)(C)C)C(O)=C(C(=O)Nc2ccc(C(F)(F)F)cc2-c2ccnc(C#N)c2)C(=O)N1Cc1ccc(OCCN2CCOCC2)c(F)c1F [Example 271] | 60%
CN1[C@@H](C(C)(C)C)C(O)=C(C(=O)Nc2ccc(Cl)cc2-c2cc(C#N)ncn2)C(=O)N1Cc1ccc(OCCN2CCOCC2)c(F)c1F [Example 272] | 43%
CN1[C@@H](C(C)(C)C)C(O)=C(C(=O)Nc2cnc(C(F)(F)F)nc2-c2ccc(C(F)(F)F)nc2)C(=O)N1Cc1ccc(OCCN2CCOCC2)c(F)c1F [Example 273] | 41%
Cc1c(C#N)ncnc1-c1cc(Cl)ccc1NC(=O)C1=C(O)[C@H](C(C)(C)C)N(C)N(Cc2ccc(OCCN3CCOCC3)c(F)c2F)C1=O [Example 274] | 43%
Cc1c(Cl)ncnc1-c1cc(Cl)ccc1NC(=O)C1=C(O)[C@H](C(C)(C)C)N(C)N(Cc2ccc(OCCN3CCOCC3)c(F)c2F)C1=O [Example 275] | 42%
Cc1c(Cl)ncnc1-c1cc(C(F)(F)F)ccc1NC(=O)C1=C(O)[C@H](C(C)(C)C)N(C)N(Cc2ccc(OCCN3CCOCC3)c(F)c2F)C1=O [Example 276] | 68%
CN1[C@@H](C(C)(C)C)C(O)=C(C(=O)Nc2ccc(C(F)(F)F)cc2C(F)(F)F)C(=O)N1Cc1ccc(OCCN2CCOCC2)c(F)c1F [Example 277] | 41%
Cc1c(-c2cc(C(F)(F)F)ccc2NC(=O)C2=C(O)[C@H](C(C)(C)C)N(C)N(Cc3ccc(OCCN4CCOCC4)c(F)c3F)C2=O)ncnc1C(F)(F)F [Example 278] | 69%
CC(C)[C@H]1C(O)=C(C(=O)Nc2ccc(C(F)(F)F)cc2-c2ccc(C(F)(F)F)nc2)C(=O)N(Cc2ccc(OCCN3CCOCC3)c(F)c2F)N1C [Example 280] | 50%
CC(C)[C@H]1C(O)=C(C(=O)Nc2ccc(Cl)cc2-c2ccc(C(F)(F)F)nc2)C(=O)N(Cc2ccc(OCCN3CCOCC3)c(F)c2F)N1C [Example 281] | 41%
CN1N(Cc2ccc(OCCN3CCOCC3)c(F)c2F)C(=O)C(C(=O)Nc2ccc(C(F)(F)F)cc2-c2ccc(C(F)(F)F)nc2)=C(O)C12CCC2 [Example 282] | 55%
Cc1c(C#N)ncnc1-c1cc(C(F)(F)F)ccc1NC(=O)C1=C(O)C2(CCC2)N(C)N(Cc2ccc(OCCN3CCOCC3)c(F)c2F)C1=O [Example 283] | 45%
CN1N(Cc2ccc(OCCN3CCOCC3)c(F)c2F)C(=O)C(C(=O)Nc2ccc(C(F)(F)F)cc2-c2ncnc(C(F)(F)F)c2Cl)=C(O)C12CCC2 [Example 284] | 46%
Cc1c(-c2cc(C(F)(F)F)ccc2NC(=O)C2=C(O)C3(CCC3)N(C)N(Cc3ccc(OCCN4CCOCC4)c(F)c3F)C2=O)ncnc1C(F)(F)F [Example 285] | 62%
